Measurements as given in US8093273B2, “Flavanoids and isoflavanoids for the prevention and treatment of cardiovascular diseases” (Resverlogix Corp., priority 2004, dated 2012).
Values after ≈ are worked out from the molar mass of the structure shown. Values belong to the molecule of their own block, whether it stands above or below them.

How the values were obtained:
human ApoA-I promoter [1] = experiment: ApoA-I promoter induction in HepG2 liver cells (pAI.474-Luc luciferase reporter); assay type: cell-based; details: average values at 15 μM, 48 hours incubation
Protocol: This study determined whether compounds of the invention have an effect on ApoA-I promoter activity expression in HepG2 cells, a liver cell line. Cells were grown under conditions recommended by the ATCC and summarized by Wong.
The promoter region of the gene encoding human ApoA-I was isolated and ligated upstream the structure gene of firefly luciferase to construct a reporter plasmid (pAI.474-Luc). The reporter plasmid, along with pRSV-β-galactosidase (as a control for transfection efficiency), were co-transfected into HepG2 cells. The cells were then incubated in an MEM selection media containing 20% fetal calf serum supplemented with G418 (final concentration: 0.5 mg/mL, Gibco) to give established strains that stably express from the reporter gene. The strains were seeded to a 6-well culture plates and incubated for 48 hours at 37° C. under 5% carbon dioxide. Cells were starved for 24 hrs in MEM selection media containing 0.5% FBS. Then, a solution of the compounds of the invention in DMSO (or other appropriate solvent) was added to the wells at a final concentration of 0 to 100 μM in MEM selection media containing 0.5% FBS.
(§1) After further incubation for 48 hours, the cells were harvested and lysed using Reporter Lysis Buffer (PROMEGA E3971), and 50 μL of luciferase assay reagent (PROMEGA E4550 Luciferase Reporter 1000 assay system) were added to measure luciferase activity with a luminometer (Fluoroskan Ascent FL from Thermo electron Corporation). Luciferase activity was normalized to lysate protein concentrations, measured using Bradford Reagent (Biorad Protein Assay reagent Cat #500-0006).

human ApoA-I promoter [2] = experiment: ApoA-I promoter induction in Caco-2 intestinal cells (pAI.474-Luc luciferase reporter); assay type: cell-based; details: Caco-2 cells, 15 μM, 48 hours incubation, luciferase activity vs control samples
Protocol: To examine the effects of compounds of the invention to increase ApoA-I expression, Caco-2 cells, an intestinal cell line derived from human epithelial intestinal cells, were grown under conditions recommended by the ATCC and summarized in United States Patent Application Publication No. 20040033480 (“Wong”), incorporated herein by reference.
Briefly, the promoter region of the gene encoding human ApoA-I was isolated and ligated upstream of the firefly luciferase gene to construct the reporter plasmid pAI.474-Luc. This reporter plasmid and pRSV-β-galactosidase (as a control for transfection efficiency) were co-transfected to Caco-2 cells. The Caco-2 cells were then incubated in a MEM selection media containing 20% fetal calf serum supplemented with G418 (final concentration: 0.5 mg/mL, Gibco) to give established strains that stably express from the reporter gene. The strains were seeded in 6-well culture plates and incubated for 48 hours at 37° C. under 5% carbon dioxide. Cells were starved for 24 hrs in MEM selection media containing 0.5% FBS. Then, a solution of a compound of the invention in DMSO or other appropriate solvent was added to the wells at a final concentration of 0 to 100 μM in MEM selection media containing 0.5% FBS.
as §1, with “system) was” for “system) were”, “Reagent (BioRad” for “Reagent (Biorad”, “#500-0006). The luciferase activity of cells treated with various concentrations of test compounds was compared to that of solvent control sample (i.e., solvent without any compound of the present invention added) and untreated control sample.” for “#500-0006).”

Caco-2 permeability = assay type: in vitro ADME, human; details: human, Caco-2
From the text: The Caco-2 cell drug transport model is widely used for screening compounds in drug discovery to assess intestinal transport and predict absorption rates.

[3] = Solubility analysis in PBS (HPLC-UV); assay type: physicochemical; details: aqueous buffer, thermodynamic from solid; 1 mg in 1 mL PBS, sonicated 1 hour, 25° C. for 3 hrs
Protocol: Samples were then centrifuged at 14,000 rpm for 6 minutes at room temperature. The supernatant was diluted with acetonitrile and was removed for analysis. Analysis was performed using HPLC-UV with 7-point standard curve to determine the concentration. The average concentration calculated is regarded as the solubility (μM).

hApoA-I transgenic mice = experiment: hApoA-I transgenic mice, oral gavage for 14 days; assay type: in vivo; details: for change in vivo at 10 mg/kg: Mus musculus, po, 336 h, Table 6 third group, 10 mg/kg BID 14 days, relative to pretreatment, Control 3 (F-101) (6.32), read-out: ApoA-I (% change)
From the text: To test whether the efficacy of compounds of the invention observed in vitro extended to an in vivo model, transgenic mice carrying multiple copies of the human ApoA-I gene (C57BI/6-tgn(apoa1)1 rub, Jackson Laboratory, Bar Harbor, Me.) were exposed to representative compounds of the invention. The exogenous human ApoA-I gene in these mice enables them to express the human ApoA-I protein under the control of this promoter.
Seven to eight week old male mice, transgenic for human ApoA-I were housed five per cage (10″×20″×8″ with aspen chip bedding) with pelleted Rodent chow [Purina 5001] and water available at all times. After an acclimation period of 1 week, animals were individually identified by numbering on tail and weighed. Mice were pre bled via the retro-orbital plexus, and 150 μl of blood was collected in 1.5 ml Eppendorf tube containing 1 μl of heparin and chilled on ice. Plasma was collected after centrifuging the whole blood at 14000 rpm [TOMY high speed micro-refrigerated centrifuge NTX-150] for 10 minutes at 4° C. and frozen at −80° C. Plasma was analyzed for: human ApoA-I by a human ApoA-I enzyme-linked Immunoassay [Direct Sandwich ELISA Calbiochem Cat#178422, Calbiochem Cat#178452, lot #B9076, Calbiochem Cat #178470 conjugated to Horse Radish Peroxidase (Cedarlane Cat#80220)]; total cholesterol [Ponte scientific reagents: # C7509-STD, #L7580-18, # C7510]; and triglyceride [Pointe Scientific Reagents: # 7532-STD, # L7580-18, #7532]. All samples were measured in triplicates and expressed as mg/dl. Mice were grouped based on the above plasma parameters and having an average body weight of 25 gm.
Two days following pre-bleed, mice were dosed by oral gavage daily for 14 days using a 20 gauge, 11/2″ curved disposable feeding needle [Popper & Sons]; when BID, mice were gavaged morning and afternoon (8 am and 5 pm); when SID mice were gavaged in morning (8 am). Compounds were prepared each day in vehicle. Test article(s), a positive control fenofibrate, and vehicle were dosed at volume of 5 mL/kg of body weight as a suspension (0.1 mL/20 g mouse). Fenofibrate was obtained commercially [SIGMA #F 6020]. Mice weights were recorded on day 1, 4, 7, 10, 12, and 15. On day 15, mice were weighed and fasted for 4 hours, sacrificed by inhalation of CO2 and blood was obtained via cardiac puncture (0.7-1.0 ml). Plasma was collected and frozen at −80° C. Samples were assayed for ApoA-I, total cholesterol, triglyceride and HDL-C by HPLC [Polaris 200 with an auto sampler Prostar 410 from Varian on a Superose 6 10/30 column from Amersham]. Samples were sent for NMR analysis [LipoScience] to identify particle size and subclass for lipoproteins. During necropsy, liver, brown fat, and the whole of small and large intestines were collected, cleaned with cold PBS and frozen at −80° C. for further analysis of compound levels. Variation between studies, in ApoA-I changes, was observed. Therefore, a relative comparison between individual(s) in the study groups was used.
4′-hydroxyflavone (10 mg/kg of body weight), 4-(4-oxo-4H-chromen-2-yl)phenyl nicotinate (Example 71) (10 mg/kg of body weight) and fenofibrate (100 mg/kg of body weight) were BID administered to hApoA-I transgenic mice daily for fourteen days by oral gavage in 0.5% Methylcellulose (w/v)/1% Tween 80 (w/v). Plasma was assayed for ApoA-I (FIG. 3A), HDL cholesterol and total cholesterol (FIG. 3B) and percent weight gain (FIG. 3C).
4′-hydroxyflavone (3 mg/kg of body weight), 4′-hydroxyflavone (10 mg/kg of body weight), 4′-hydroxyflavone (30 mg/kg of body weight), 2-(4-Hydroxy-phenyl)-pyrano[2,3-b]pyridin-4-one (10 mg/kg of body weight), and fenofibrate (100 mg/kg of body weight) were BID administered to hApoA-I transgenic mice daily for fourteen days by oral gavage in 0.5% methylcellulose (w/v)/1% Tween 80 (w/v). In this experiment plasma was assayed for ApoA-I. […]

SMILES: O=c1c(O)c(-c2ccc(O)c(O)c2)oc2cc(O)cc(O)c12 [3,5,7-trihydroxy-2-(3,4-dihydroxyphenyl)-4H-chromen-4-one, reference compound]
ApoA-I Promoter Induction (human ApoA-I promoter [1]): increased

SMILES: O=c1cc(-c2ccc(O)cc2)oc2cccc(O)c12 [4′,5-dihydroxyflavone]
ApoA-I Promoter Induction (human ApoA-I promoter [1]): increased

SMILES: O=C1CC(c2ccc(O)cc2)Oc2cc(O)cc(O)c21 (centres unmarked) [5,7-Dihydroxy-2-(4-hydroxyphenyl)-chroman-4-one]
ApoA-I Promoter Induction (human ApoA-I promoter [2]): increased | ApoA-I Promoter Induction (human ApoA-I promoter [1]): increased

SMILES: Cc1cc(-c2cc(=O)c3cccnc3o2)ccc1O [Example 38, 2-(4-hydroxy-3-methylphenyl)-4H-pyrano[2,3-b]pyridine-4-one]
ApoA-I Promoter Induction (human ApoA-I promoter [2]): increased | Papp (Caco-2 permeability): 0.596 ×10⁻⁶ cm/s | melting point: 300 to 302 °C

SMILES: Oc1ccc(-c2cc3ccccc3cn2)cc1 [Example 54, 4-isoquinolin-3-yl-phenol]
ApoA-I Promoter Induction (human ApoA-I promoter [2]): increased | ApoA-I Promoter Induction (human ApoA-I promoter [1]): increased | Papp (Caco-2 permeability): 4.11 ×10⁻⁶ cm/s | melting point: 218 to 219 °C

SMILES: O=C(Oc1ccc(-c2cc(=O)c3ccccc3o2)cc1)c1cccnc1 [Example 71, 4-(4-oxo-4H-chromen-2-yl)phenyl nicotinate]
ApoA-I Promoter Induction (human ApoA-I promoter [2]): increased | ApoA-I Promoter Induction (human ApoA-I promoter [1]): increased | plasma ApoA-I, net % change over vehicle (hApoA-I transgenic mice; Experiment A, 10 mg/kg BID oral gavage, 14 days, 0.5% methylcellulose/1% Tween 80): 12.82% | liver weight gain normalized to body weight, compared to vehicle (hApoA-I transgenic mice; Experiment A, 10 mg/kg BID, day 15, male mice): minor changes

SMILES: O=C(Oc1ccc(C2CC(=O)c3c(OC(=O)c4cccnc4)cc(OC(=O)c4cccnc4)cc3O2)cc1)c1cccnc1 (centres unmarked) [Example 73, 2-(4-(Nicotinoyloxy)phenyl)-4-oxochroman-5,7-diyl dinicotinate]
ApoA-I Promoter Induction (human ApoA-I promoter [1]): no increase

SMILES: O=C(Oc1ccc(-c2cc(=O)c3c(OC(=O)c4cccnc4)cc(OC(=O)c4cccnc4)cc3o2)cc1)c1cccnc1 [Example 74, 2-(4-Nicotinoyloxy)phenyl)-oxo-4H-chromene-5,7-diyl dinicotinate]
ApoA-I Promoter Induction (human ApoA-I promoter [2]): increased | ApoA-I Promoter Induction (human ApoA-I promoter [1]): increased

More lines, main results first:

Papp (Caco-2 permeability): 7.42 ×10⁻⁶ cm/s
SMILES: Nc1cc(O)ccc1-c1cc(=O)c2ccccc2o1 [Example 3, 2-(2-amino-4-hydroxy-phenyl)-chromen-4-one]
ApoA-I Promoter Induction (human ApoA-I promoter [1]): increased

Papp (Caco-2 permeability): 0.695 ×10⁻⁶ cm/s | melting point: 255 to 256 °C
SMILES: Cc1cc(-c2cc(=O)c3ccccc3o2)cc(C)c1O [Example 7, 2-(4-hydroxy-3,5-dimethylphenyl)chromen-4-one]
ApoA-I Promoter Induction (human ApoA-I promoter [2]): increased

melting point: 246 to 247 °C
SMILES: O=c1cc(-c2ccc(O)cc2)oc2ccc(CO)cc12 [Example 11, 6-Hydroxymethyl-2-(4-hydroxyphenyl)chromen-4-one]
ApoA-I Promoter Induction (human ApoA-I promoter [1]): increased

melting point: 275 to 276 °C
SMILES: O=c1cc(-c2ccc(O)c(F)c2)oc2ccccc12 [Example 12, 2-(3-Fluoro-4-hydroxyphenyl)chromen-4-one]
ApoA-I Promoter Induction (human ApoA-I promoter [1]): increased

melting point: 262 to 265 °C
SMILES: O=c1cc(-c2ccc(CO)cc2)oc2ccc(O)cc12 [Example 14, 6-Hydroxy-2-(4-hydroxymethylphenyl)chromen-4-one]
ApoA-I Promoter Induction (human ApoA-I promoter [1]): increased

solubility at 3 h [3]: 51.4 µM (≈ 14.7 µg/mL) | melting point: 256 to 258 °C
SMILES: O=c1cc(-c2ccc(O)c(F)c2)oc2ccc(CO)cc12 [Example 33, 2-(3-fluoro-4-hydroxyphenyl)-6-(hydroxymethyl)-4H-chromen-4-one]
ApoA-I Promoter Induction (human ApoA-I promoter [2]): increased

Papp (Caco-2 permeability): 1.23 ×10⁻⁶ cm/s
SMILES: O=c1cc(-c2ccc(O)cn2)oc2ccccc12 [Example 46, 2-(5-hydroxy-pyridin-2-yl)-chromen-4-one]
ApoA-I Promoter Induction (human ApoA-I promoter [2]): increased | change in vivo at 10 mg/kg (hApoA-I transgenic mice): 5.62%

Papp (Caco-2 permeability): 6.48 ×10⁻⁶ cm/s
SMILES: O=c1cc(-c2ccncc2)oc2ccccc12 [Example 47, 2-pyridin-4-yl-chromen-4-one]
ApoA-I Promoter Induction (human ApoA-I promoter [2]): increased | change in vivo at 10 mg/kg (hApoA-I transgenic mice): 22.7%
